Experimental data published in ChEMBL document CHEMBL1138030, “Inhibitors of HCV NS5B polymerase: synthesis and structure-activity relationships of N-1-benzyl and N-1-[3-methylbutyl]-4-hydroxy-1,8-naphthyridon-3-yl benzothiadiazine analogs containing substituents on the aromatic ring” (Bioorg Med Chem Lett, 2006).

How the values were obtained:
[1] = molecular target: T1, RNA-directed RNA polymerase (Hepacivirus hominis, UniProt O39930); experiment: Inhibition of HCV 1b NS5B RNA polymerase; design: species or system Hepatitis C virus subtype 1b
[2] = molecular target: T1, RNA-directed RNA polymerase; experiment: Inhibition of HCV 1a NS5B RNA polymerase; design: species or system Hepatitis C virus subtype 1a
[3] = tested on: Hepatitis C virus; experiment: Inhibition of HCV 1b replication in presence of 5% fetal calf serum; type: functional, organism-based, Hepatitis C virus subtype 1b
[4] = Protein binding in plasma; type: ADME, cell-free; details: read-out: PPB
[5] = tested on: Hepatitis C virus; experiment: Inhibition of HCV 1b replication in presence of 40% human serum; type: functional, organism-based, Hepatitis C virus subtype 1b
[6] = Bioavailability in rat at 5 mg/kg, po; type: ADME, organism-based; details: in vivo
[7] = Cmax in rat at 5 mg/kg, po; type: ADME, organism-based; design: dose 5 mg/kg, route oral; details: in vivo
[8] = Clearance in rat at 5 mg/kg, po; type: ADME, organism-based; design: dose 5 mg/kg, route oral; details: in vivo
[9] = Half life in rat at 5 mg/kg, po; type: ADME, organism-based; design: dose 5 mg/kg, route oral; details: in vivo
[10] = Ratio of drug level in liver to plasma in rat after 8 hrs; type: ADME, organism-based

T1 sequence (O39930 whole entry): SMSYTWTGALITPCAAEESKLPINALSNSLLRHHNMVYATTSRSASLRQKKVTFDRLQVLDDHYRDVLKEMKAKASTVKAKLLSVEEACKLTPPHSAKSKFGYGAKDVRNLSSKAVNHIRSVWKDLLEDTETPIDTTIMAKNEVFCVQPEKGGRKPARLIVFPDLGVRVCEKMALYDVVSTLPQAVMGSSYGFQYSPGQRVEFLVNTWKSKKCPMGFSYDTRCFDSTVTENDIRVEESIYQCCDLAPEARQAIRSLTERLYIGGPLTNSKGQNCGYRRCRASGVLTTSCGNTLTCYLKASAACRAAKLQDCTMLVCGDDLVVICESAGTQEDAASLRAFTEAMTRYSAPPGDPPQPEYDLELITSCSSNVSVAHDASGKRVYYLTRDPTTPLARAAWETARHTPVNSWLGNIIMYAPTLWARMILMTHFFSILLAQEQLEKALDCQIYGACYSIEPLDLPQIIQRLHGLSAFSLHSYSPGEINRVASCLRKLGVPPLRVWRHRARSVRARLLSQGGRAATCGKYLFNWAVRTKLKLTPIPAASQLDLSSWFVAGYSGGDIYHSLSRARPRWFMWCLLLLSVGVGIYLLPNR

| IC50 [1] [nM] | IC50 [2] [nM] | SMILES | other results |
| --- | --- | --- | --- |
| 57 | 367 | CC(C)CCn1c(=O)c(C2=NS(=O)(=O)c3cc(OCC(=O)O)ccc3N2)c(O)c2cccnc21 | – |
| 7 | 41 | CC(C)CCn1c(=O)c(C2=Nc3ccc(NS(=O)(=O)c4ccccc4)cc3S(=O)(=O)N2)c(O)c2cccnc21 | EC50 [3]: 1690 nM |
| 930 | 1620 | CCCOc1ccc2c(c1)S(=O)(=O)NC(c1c(O)c3cccnc3n(CCC(C)C)c1=O)=N2 | – |
| 3 | 8 | CC(C)CCn1c(=O)c(C2=NS(=O)(=O)c3cc(NS(=O)(=O)C(C)C)ccc3N2)c(O)c2cccnc21 | EC50 [3]: 110 nM |
| 70 | 934 | CC(C)CCn1c(=O)c(C2=NS(=O)(=O)c3cc(OCC(=O)N(C)C)ccc3N2)c(O)c2cccnc21 | – |
| 1490 | – | CC(C)CCn1c(=O)c(C2=Nc3ccc(OCc4ccccc4)cc3S(=O)(=O)N2)c(O)c2cccnc21 | – |
| 96 | 6700 | Cc1cccc2c1N=C(c1c(O)c3cccnc3n(Cc3ccccc3)c1=O)NS2(=O)=O | – |
| 65 | 1130 | COc1ccc2c(c1)S(=O)(=O)N=C(c1c(O)c3cccnc3n(CCC(C)C)c1=O)N2 | – |
| 76 | 8310 | COc1ccc2c(c1)S(=O)(=O)NC(c1c(O)c3cccnc3n(Cc3ccccc3)c1=O)=N2 | – |
| 5 | 22 | CCCCS(=O)(=O)Nc1ccc2c(c1)S(=O)(=O)NC(c1c(O)c3cccnc3n(CCC(C)C)c1=O)=N2 | EC50 [3]: 1000 nM |
| 34 | 470 | CC(C)CCn1c(=O)c(C2=Nc3ccc(NCC(N)=O)cc3S(=O)(=O)N2)c(O)c2cccnc21 | EC50 [3]: 450 nM |
| 756 | 16800 | O=c1c(C2=Nc3ccc(Br)cc3S(=O)(=O)N2)c(O)c2cccnc2n1Cc1ccccc1 | – |
| 230 | 25700 | Cc1ccc2c(c1)S(=O)(=O)NC(c1c(O)c3cccnc3n(Cc3ccccc3)c1=O)=N2 | – |
| 41 | 810 | CC(C)CCn1c(=O)c(C2=NS(=O)(=O)c3ccccc3N2)c(O)c2cccnc21 | – |
| 51 | 637 | CC(C)CCn1c(=O)c(C2=Nc3ccc(OCCN)cc3S(=O)(=O)N2)c(O)c2cccnc21 | – |
| 24 | 120 | CC(C)CCn1c(=O)c(C2=Nc3ccc(NCC#N)cc3S(=O)(=O)N2)c(O)c2cccnc21 | – |

| IC50 [1] [nM] | IC50 [2] [nM] | SMILES | other results |
| --- | --- | --- | --- |
| 25 | 141 | CC(C)CCn1c(=O)c(C2=NS(=O)(=O)c3cc(OCC#N)ccc3N2)c(O)c2cccnc21 | – |
| – | 5800 | O=c1c(C2=NS(=O)(=O)c3ccccc3N2)c(O)c2cccnc2n1Cc1ccccc1 | – |
| 3900 | – | COc1ccc2c(c1)N=C(c1c(O)c3cccnc3n(Cc3ccccc3)c1=O)NS2(=O)=O | – |
| – | 2 | CC(C)CCn1c(=O)c(C2=NS(=O)(=O)c3cc(NS(C)(=O)=O)ccc3N2)c(O)c2cccnc21 | fraction unbound [4]: < 0.01; EC50 [3]: 3 nM; EC50 [5]: 1310 nM |
| 70 | 906 | CC(C)CCn1c(=O)c(C2=NS(=O)(=O)c3cc(NC(=O)C(F)(F)F)ccc3N2)c(O)c2cccnc21 | – |
| 1170 | 17600 | COc1cccc2c1N=C(c1c(O)c3cccnc3n(CCC(C)C)c1=O)NS2(=O)=O | – |
| 23 | 310 | CC(C)CCn1c(=O)c(C2=Nc3ccc(N)cc3S(=O)(=O)N2)c(O)c2cccnc21 | EC50 [3]: 480 nM |
| 2120 | 18000 | COc1cccc2c1NC(c1c(O)c3cccnc3n(Cc3ccccc3)c1=O)=NS2(=O)=O | – |
| 42 | 390 | CC(C)CCn1c(=O)c(C2=NS(=O)(=O)c3cc(O)ccc3N2)c(O)c2cccnc21 | – |
| 54 | 8370 | O=c1c(C2=NS(=O)(=O)c3cccc(O)c3N2)c(O)c2cccnc2n1Cc1ccccc1 | – |
| 850 | 5000 | CC(C)CCn1c(=O)c(C2=Nc3ccc(OCC(=O)OC(C)(C)C)cc3S(=O)(=O)N2)c(O)c2cccnc21 | – |
| 16 | 46 | CC(C)CCn1c(=O)c(C2=Nc3ccc(OCC(N)=O)cc3S(=O)(=O)N2)c(O)c2cccnc21 | fraction unbound [4]: < 0.01; bioavailability [6]: 35%; Cmax [7]: 180 nM; CL/F [8]: 12.3 mL/min/kg; half-life [9]: 120 min; Kp at 8 h [10]: 54; EC50 [3]: 78 nM; EC50 [5]: 2740 nM |
| 1170 | 6200 | O=c1c(C2=NS(=O)(=O)c3cccc(Br)c3N2)c(O)c2cccnc2n1Cc1ccccc1 | – |
| 80 | 180 | CNC(=O)COc1ccc2c(c1)S(=O)(=O)NC(c1c(O)c3cccnc3n(CCC(C)C)c1=O)=N2 | – |
| 2510 | – | O=c1c(C2=NS(=O)(=O)c3ccc(O)cc3N2)c(O)c2cccnc2n1Cc1ccccc1 | – |
